From ChEMBL document CHEMBL1122784, “Antitumor imidazotetrazines. 1. Synthesis and chemistry of 8-carbamoyl-3-(2-chloroethyl)imidazo[5,1-d]-1,2,3,5-tetrazin-4(3 H)-one , a novel broad-spectrum antitumor agent” (J Med Chem, 1984)

What was measured:
[1] = system: Mus musculus; assay: Compound was evaluated for number of survivors in L1210 leukemia implanted BDF1 mice on day 0 after ip administration of 12.5 mg/kg/day on day 60 out of 6 mice; assay type: functional; conditions: route intraperitoneal
[2] = system: Mus musculus; assay: Compound was evaluated for %T/C in P388 leukemia implanted BDF1 mice on day 0 after ip administration of 5 mg/kg/day on day 1; assay type: functional; conditions: route intraperitoneal
[3] = system: Mus musculus; assay: Compound was evaluated for %T/C in L1210 leukemia implanted BDF1 mice on day 0 after ip administration of 80 mg/kg/day on day 1; assay type: functional; conditions: route intraperitoneal
[4] = system: Mus musculus; assay: Compound was evaluated for %T/C in L1210 leukemia implanted BDF1 mice on day 0 after ip administration of 12.5 mg/kg/day on day 1-9; assay type: functional; conditions: route intraperitoneal
[5] = system: Mus musculus; assay: Compound was evaluated for %T/C in P388 leukemia implanted BDF1 mice on day 0 after ip administration of 10 mg/kg/day on day 1; assay type: functional; conditions: route intraperitoneal
[6] = system: Mus musculus; assay: Compound was tested for mortality in P388 leukemia implanted BDF1 mice on day 0 after ip administration of 25 mg/kg/day on day 1-5 out of 6 mice; assay type: functional; conditions: route intraperitoneal
[7] = system: Mus musculus; assay: Compound was tested for mortality in L1210 leukemia implanted BDF1 mice on day 0 after ip administration of 5 mg/kg/day on day 1-5 out of 5 mice; assay type: functional; conditions: route intraperitoneal
[8] = system: Mus musculus; assay: Compound was tested for mortality in P388 leukemia implanted BDF1 mice on day 0 after ip administration of 7.5 mg/kg/day on day 1-5 out of 5 mice; assay type: functional; conditions: route intraperitoneal
[9] = system: Mus musculus; assay: Compound was evaluated for number of survivors in L1210 leukemia implanted BDF1 mice on day 0 after ip administration of 2.5 mg/kg/day on day 60 out of 5 mice; assay type: functional; conditions: route intraperitoneal
[10] = system: Mus musculus; assay: Compound was tested for mortality in L1210 leukemia implanted BDF1 mice on day 0 after ip administration of 20 mg/kg/day on days 1-5 out of 5 mice; assay type: functional; conditions: route intraperitoneal
[11] = system: Mus musculus; assay: Compound was tested for mortality in P388 leukemia implanted BDF1 mice on day 0 after ip administration of 2.5 mg/kg/day on day 1-5 out of 5 mice; assay type: functional; conditions: route intraperitoneal
[12] = system: Mus musculus; assay: Compound was evaluated for %T/C in L1210 leukemia implanted BDF1 mice on day 0 after ip administration of 2.5 mg/kg/day on day 1-5; assay type: functional; conditions: route intraperitoneal
[13] = system: Mus musculus; assay: Compound was evaluated for number of survivors in P388 leukemia implanted BDF1 mice on day 0 after ip administration of 2.5 mg/kg/day on day 60 out of 5 mice; assay type: functional; conditions: route intraperitoneal
[14] = system: Mus musculus; assay: Compound was evaluated for number of survivors in P388 leukemia implanted BDF1 mice on day 0 after ip administration of 25 mg/kg/day on day 60 out of 6 mice; assay type: functional; conditions: route intraperitoneal
[15] = system: Mus musculus; assay: Compound was evaluated for %T/C in L1210 leukemia implanted BDF1 mice on day 0 after ip administration of 50 mg/kg/day on day 1-9; assay type: functional; conditions: route intraperitoneal
[16] = Half-life period in 95% ethanol in dark at 28 degrees celsius.; assay type: ADME
[17] = system: Mus musculus; assay: Compound was tested for mortality in P388 leukemia implanted BDF1 mice on day 0 after ip administration of 5 mg/kg/day on day 1-5 out of 5 mice; assay type: functional; conditions: route intraperitoneal
[18] = system: Mus musculus; assay: Compound was tested for mortality in L1210 leukemia implanted BDF1 mice on day 0 after ip administration of 40 mg/kg/day on day 1 out of 5 mice; assay type: functional; conditions: route intraperitoneal
[19] = system: Mus musculus; assay: Compound was evaluated for number of survivors in P388 leukemia implanted BDF1 mice on day 0 after ip administration of 7.5 mg/kg/day on day 60 out of 5 mice; assay type: functional; conditions: route intraperitoneal
[20] = system: Mus musculus; assay: Compound was evaluated for %T/C in L1210 leukemia implanted BDF1 mice on day 0 after ip administration of 6.25 mg/kg/day on day 1-9; assay type: functional; conditions: route intraperitoneal
[21] = system: Mus musculus; assay: Compound was evaluated for %T/C in L1210 leukemia implanted BDF1 mice on day 0 after ip administration of 10 mg/kg/day on day 1-5; assay type: functional; conditions: route intraperitoneal
[22] = system: Mus musculus; assay: Compound was tested for mortality in L1210 leukemia implanted BDF1 mice on day 0 after ip administration of 5 mg/kg/day on day 1 out of 5 mice; assay type: functional; conditions: route intraperitoneal
[23] = system: Mus musculus; assay: Compound was evaluated for number of survivors in L1210 leukemia implanted BDF1 mice on day 0 after ip administration of 3.12 mg/kg/day on day 60 out of 6 mice; assay type: functional; conditions: route intraperitoneal
[24] = system: Mus musculus; assay: Compound was evaluated for %T/C in P388 leukemia implanted BDF1 mice on day 0 after ip administration of 6.25 mg/kg/day on day 1-5; assay type: functional; conditions: route intraperitoneal
[25] = system: Mus musculus; assay: Compound was evaluated for %T/C in P388 leukemia implanted BDF1 mice on day 0 after ip administration of 40 mg/kg/day on day 1; assay type: functional; conditions: route intraperitoneal
[26] = system: Mus musculus; assay: Compound was tested for mortality in P388 leukemia implanted BDF1 mice on day 0 after ip administration of 20 mg/kg/day on day 1 out of 5 mice; assay type: functional; conditions: route intraperitoneal
[27] = system: Mus musculus; assay: Compound was tested for mortality in P388 leukemia implanted BDF1 mice on day 0 after ip administration of 6.25 mg/kg/day on day 1-5 out of 6 mice; assay type: functional; conditions: route intraperitoneal
[28] = Half-life period in phosphate buffer at pH 7.4 in the dark at 28 degrees celsius.; assay type: ADME
[29] = system: Mus musculus; assay: Compound was tested for mortality in L1210 leukemia implanted BDF1 mice on day 0 after ip administration of 7.5 mg/kg/day on day 1-5 out of 5 mice; assay type: functional; conditions: route intraperitoneal
[30] = system: Mus musculus; assay: Compound was tested for mortality in P388 leukemia implanted BDF1 mice on day 0 after ip administration of 20 mg/kg/day on day 1-5 out of 5 mice; assay type: functional; conditions: route intraperitoneal
[31] = system: Mus musculus; assay: Compound was evaluated for number of survivors in P388 leukemia implanted BDF1 mice on day 0 after ip administration of 20 mg/kg/day on day 60 out of 5 mice; assay type: functional; conditions: route intraperitoneal
[32] = system: Mus musculus; assay: Compound was evaluated for %T/C in L1210 leukemia implanted BDF1 mice on day 0 after ip administration of 10 mg/kg/day on day 1; assay type: functional; conditions: route intraperitoneal
[33] = system: Mus musculus; assay: Compound was evaluated for %T/C in L1210 leukemia implanted BDF1 mice on day 0 after ip administration of 20 mg/kg/day on days 1-5; assay type: functional; conditions: route intraperitoneal
[34] = system: Mus musculus; assay: Compound was tested for mortality in L1210 leukemia implanted BDF1 mice on day 0 after ip administration of 3.12 mg/kg/day on day 1-9 out of 6 mice; assay type: functional; conditions: route intraperitoneal
[35] = system: Mus musculus; assay: Compound was evaluated for %T/C in P388 leukemia implanted BDF1 mice on day 0 after ip administration of 12.5 mg/kg/day on day 1-5; assay type: functional; conditions: route intraperitoneal
[36] = system: Mus musculus; assay: Compound was tested for mortality in P388 leukemia implanted BDF1 mice on day 0 after ip administration of 40 mg/kg/day on day 1 out of 5 mice; assay type: functional; conditions: route intraperitoneal
[37] = system: Mus musculus; assay: Compound was tested for mortality in L1210 leukemia implanted BDF1 mice on day 0 after ip administration of 12.5 mg/kg/day on day 1-9 out of 6 mice; assay type: functional; conditions: route intraperitoneal
[38] = system: Mus musculus; assay: Compound was evaluated for %T/C in L1210 leukemia implanted BDF1 mice on day 0 after ip administration of 25 mg/kg/day on day 1-9; assay type: functional; conditions: route intraperitoneal
[39] = system: Mus musculus; assay: Compound was evaluated for number of survivors in L1210 leukemia implanted BDF1 mice on day 0 after ip administration of 50 mg/kg/day on day 60 out of 6 mice; assay type: functional; conditions: route intraperitoneal

SMILES: NC(=O)c1ncn2c(=O)n(CCCl)nnc12 [MITOZOLOMIDE]
- Survivors [1]: 6
- T/C [2]: 132%
- T/C [3]: 177%
- T/C [4]: >745%
- T/C [5]: 164%
- Mortality [6]: 0
- Mortality [7]: 0
- Mortality [8]: 0
- Survivors [9]: 0
- Mortality [10]: 0
- Mortality [11]: 0
- T/C [12]: 112%
- Survivors [13]: 0
- Survivors [14]: 4
- T/C [15]: 137%
- half-life [16]: 1.2 h
- Mortality [17]: 0
- Mortality [18]: 0
- Survivors [19]: 5
- T/C [20]: 184%
- T/C [21]: >577%
- Mortality [22]: 0
- Survivors [23]: 0
- T/C [24]: 180%
- T/C [25]: >600%
- Mortality [26]: 0
- Mortality [27]: 1
- half-life [28]: 1.63 h
- Mortality [29]: 0
- Mortality [30]: 0
- Survivors [31]: 5
- T/C [32]: 131%
- T/C [33]: >577%
- Mortality [34]: 0
- T/C [35]: 275%
- Mortality [36]: 0
- Mortality [37]: 0
- T/C [38]: >745%
- Survivors [39]: 0
